Results on three compounds are retold here after patent US20130259882A1, “Conjugate of Folate and Antibody Preparation Method and Use Thereof” (priority 2010, published 2013).

Assay [1] concerns rats with rheumatoid arthritis. Briefly: Complete Freund adjuvant induced rheumatoid arthritis model. In kind it is in vivo, Wistar rat. As to conditions: Diclofenac sodium 10 mg/kg orally.
Protocol: Rat IgG and complete Freund adjuvant are from Sigma. Diclofenac sodium enteric-coated tablets are from Beijing Novartis Pharma Ltd. RF detection kit is from Nanjing JianCheng Bioengineering Institute. • 2. Animal: 50 healthy and mature Wistar rat, both male and female, body weight 150˜200 g are provided by Wuhan University Laboratory Animal Center, China.
Diclofenac sodium positive control group were given 10 mg/kg Diclofenac sodium orally. Normal control group and model group were Intra-peritoneally injected equal amount of saline. The injections were performed once per day. After measurement of right foot volume on day 0, 0.1 ml complete Freund adjuvant was subcutaneously injected into right ankle. On day 21, the right foot volume was measured after the last injection. Rats were sacrificed with ether inhalation after taking blood samples. The blood samples were centrifuged to get serum for the detection of rheumatoid factor (RF).
Rheumatoid factors RF: 100 μl serum were used with RF detection kit.
Assay [2] concerns mice with inflammatory bowel disease. In words: Acetic acid induced colitis (inflammatory bowel disease model). In kind it is in vivo, Kunming mice. The conditions noted are these: Mesalazine 600 mg/kg orally.
Protocol: Mesalazine SR Granules are from Ethypharm (France). MPO detection kit is from Nanjing Jian-Cheng Bioengineering Institute. • 2. Animal: 50 healthy and mature male Kunming mice, body weight 18-22 g are provided by Nanjing University model animal center.
Mesalazine positive control group were given 600 mg/kg Mesalazine orally. Control group and model groups were i.p. injected with equal amount of saline. The injections were performed once per day.
Acetic acid stimulation was used to induce colitis. The mice were fasting on day 9, and on day 10, were anaesthetized with ether inhalation. Before injection, the intestinal was cleaned, with a polyethylene pipe containing 0.1 ml 6% acetic acid inserted about 1.5 cm into the anus.
Colon macroscopic damage index (CMDI): The entire colon was taken and scissored along the mesenteric. The adhesion, ulcer and congestion were scored by naked eye observation according to the Table 7. • 2. Myeloperoxidase (MPO): The tissues were weighted and homogenized (1:19, weight/volume) in Tris buffer. After homogenization and repeated freezing and thawing, the tissues were made to 5% homogenate. MPO detection was performed according to kit manufacturer's instructions and the protein level was detected using the Lowry method.
Assay [3] has as its system folate receptor transfected MCF-7 cells. Briefly: Breast cancer model: folate receptor transfected MCF-7 cells injected subcutaneously in mice, tumor volume and mean survival time. It counts as in vivo, nude mice.
Protocol: Animal: 50 healthy and mature female nude mice, body weight 18-22 g are provided by Nanjing University Model Animal Center.
By weight, the mice were randomly divided into normal control group, model group, Epirubicin positive control group, FIG 5 mg/kg group and 40 mg/kg group, FGIG 5 mg/kg group and 40 mg/kg group. 7 days before the beginning of the experiment, the mice were maintained with feed without folic acid. From day 0, model group, epirubicin positive control group, FIG 5 mg/kg group or 40 mg/kg group and FGIG 5 mg/kg group or 40 mg/kg group were subcutaneously injected with folate receptor transfected MCF-7 cells (1×10^6) each. From day 5, FIG 5 mg/kg group and FIG 40 mg/kg group were intra-peritoneally injected with FIG 5 mg/kg and 40 mg/kg, respectively). FGIG 5 mg/kg group and FGIG 40 mg/kg group were intra-peritoneally injected with FGIG (5 mg/kg and 40 mg/kg, respectively). Epirubicin positive control group were intra-peritoneally injected with Epirubicin (200 mg/kg). Normal control group and model group were intra-peritoneally injected equal amount of saline. The injections were performed once time every four days. 15 days after injection, the mice were fasting. The next day after treatment, tumor volume was measured with vernier caliper and mean survival time was also calculated.
Volume: solid tumor volume was calculated using the following formula: V=0.5×L×W×H.

Marks after values point to notes of the source that are not given here.

In the case of `O=C(O)Cc1ccccc1Nc1c(Cl)cccc1Cl` [Diclofenac sodium], the Joint injury score in assay [1] (day 21) is given as 0.6 ± 0.22. In addition, in assay [1] (rheumatoid factor in serum), the “RF” value was found to be 15.2 ± 1.99 pg/mL. Moreover, in assay [1] (right foot, day 21 vs day 0), the “Toe volume difference” value came out at 0.090 ± 0.052 mL.
Take `Nc1ccc(O)c(C(=O)O)c1` [Mesalazine]: in assay [2], the “Colon coefficient (g/100 g)” value is 1.21 ± 0.13 g/100 g. For the same compound, in assay [2] (colon tissue), the “MPO (U/mg · pro.)” value worked out at 2.42 ± 0.11 U/mg · pro. The compound further returned an Inflammation rating level in assay [2] (score per Table 7) of 1.9 ± 0.5.
Consider `COc1cccc2c1C(=O)c1c(O)c3c(c(O)c1C2=O)C[C@@](O)(C(=O)CO)C[C@@H]3O[C@H]1C[C@H](N)[C@@H](O)[C@H](C)O1` [Epirubicin], for which the “Mean survival time (days)” value in assay [3] (Epirubicin 200 mg/kg i.p.) is recorded as 9 ^▴▴ days. Moreover, the “Volume of tumor (cm^3)” value in assay [3] (Epirubicin 200 mg/kg i.p. every four days, day 16) is on record as 6.18 ± 1.34 ^▴▴ cm^3.
